Consider 21 molecules from BindingDB's records for doi:10.1016/j.ejmech.2018.08.031 (Wenzhou Medical University, 2018).

SMILES strings stand for the structures. Some results are limits rather than exact numbers.

This assay is described as follows: Inhibition of recombinant human GST-tagged EGFR L858R mutant cytoplasmic domain expressed in baculovirus expression system using FAM-labeled peptide as substrate after 10 mins by mobility shift assay.
With `COc1cc(Nc2cc(Nc3ccc(Cl)cc3)ncn2)cc(OC)c1OC`, the 50% inhibitory concentration (IC50) was above 10000 nM.
Regarding `CCOc1ccc(Nc2cc(NC(=O)c3ccccc3)ncn2)cc1`, the IC50 worked out at 1210 nM.
To `O=C(O)CCCC(=O)Nc1cc(N2CCOCC2)ncn1` belongs 27 nM; to `COc1ccc(OC)c(Nc2cc(NC(=O)CCCC(=O)O)ncn2)c1`, above 10000 nM.
On to `COc1ccc(OC)c(Nc2cc(NCCc3cccs3)ncn2)c1`, for which the IC50 was found to be 167 nM.
With `COc1cccc(Nc2cc(NC(=O)CCCC(=O)O)ncn2)c1`, the IC50 turned out to be 31 nM.
On to `COc1cccc(Nc2cc(Nc3ccc(S(N)(=O)=O)cc3)ncn2)c1`, for which the IC50 was 1850 nM.
For the molecule `COc1ccc(OC)c(Nc2cc(Nc3ccc(N4CCN(C)CC4)cc3)ncn2)c1`, the IC50 is 167 nM.
`COc1ccc(Nc2cc(NC(=O)c3ccccc3)ncn2)cc1`: the IC50 amounted to 60 nM.
Take `O=C(O)CCCC(=O)Nc1cc(Nc2ccc(Cl)cc2)ncn1`: the IC50 came out at 1320 nM.
For the molecule `O=C(O)CCCC(=O)Nc1cc(Nc2cccc(Br)c2)ncn1`, the IC50 was above 10000 nM.
Consider `COc1ccc(OC)c(Nc2cc(Nc3ccc(S(N)(=O)=O)cc3)ncn2)c1`, for which the 50% inhibitory concentration (IC50) is 619 nM.
Take `CCNc1cc(Nc2cccc(Cl)c2)ncn1`: the IC50 was above 10000 nM.
Take `CCOC(=O)c1ccc(Nc2cc(Nc3cccc(OC)c3)ncn2)cc1`: the IC50 was found to be 1740 nM.
In the case of `COc1ccc(OC)c(Nc2cc(Nc3ccc(F)cc3)ncn2)c1`, the 50% inhibitory concentration (IC50) amounted to 230 nM.
Consider `O=C(Nc1cc(Nc2ccc(Cl)cc2)ncn1)c1ccc(F)cc1`, for which the concentration for half-maximal inhibition (IC50) was 1610 nM.
Regarding `O=C(O)CCCC(=O)Nc1cc(Nc2ccccc2)ncn1`, the IC50 was determined as 183 nM.
Turning to `CCOC(=O)c1ccc(Nc2cc(NC(=O)CCCC(=O)O)ncn2)cc1`, the IC50 came to 69 nM.
For the molecule `CCOC(=O)CCC(=O)Nc1cc(Nc2cccc(Br)c2)ncn1`, the IC50 came out at 1340 nM.
To `CCOC(=O)CCCC(=O)Nc1cc(Nc2cccc(Cl)c2)ncn1` belongs above 10000 nM.
On to `COc1cccc(Nc2cc(Nc3cccc(Cl)c3)ncn2)c1`, for which the IC50 turned out to be 1570 nM.
